Reference: patent publication US10072001B2, “Tank-binding kinase inhibitor compounds” (Gilead Sciences, Inc., priority 2014, dated 2018)

How the values were obtained:
IKKε = IKKε (Homo sapiens (Human), UniProt Q14164); experiment: TR-FRET kinase assay, IKKε; format: biochemical; settings: full length recombinant IKKε 0.3 nM, 2x Km ATP, 1 μM peptide, 240 min at 25° C.; geometric mean of minimum four determinations
Source text: Biological Assay for TBK1 and IKKs:

TBK1 = TBK1 (Homo sapiens (Human), UniProt Q9UHD2); experiment: TR-FRET kinase assay, TBK1; settings: read-out: TBK1-IC50; full length recombinant TBK1 2.5 nM, 2x Km ATP, 1 μM peptide, 240 min at 25° C.; geometric mean of minimum four determinations
TBK1, sequence (Q9UHD2 whole entry): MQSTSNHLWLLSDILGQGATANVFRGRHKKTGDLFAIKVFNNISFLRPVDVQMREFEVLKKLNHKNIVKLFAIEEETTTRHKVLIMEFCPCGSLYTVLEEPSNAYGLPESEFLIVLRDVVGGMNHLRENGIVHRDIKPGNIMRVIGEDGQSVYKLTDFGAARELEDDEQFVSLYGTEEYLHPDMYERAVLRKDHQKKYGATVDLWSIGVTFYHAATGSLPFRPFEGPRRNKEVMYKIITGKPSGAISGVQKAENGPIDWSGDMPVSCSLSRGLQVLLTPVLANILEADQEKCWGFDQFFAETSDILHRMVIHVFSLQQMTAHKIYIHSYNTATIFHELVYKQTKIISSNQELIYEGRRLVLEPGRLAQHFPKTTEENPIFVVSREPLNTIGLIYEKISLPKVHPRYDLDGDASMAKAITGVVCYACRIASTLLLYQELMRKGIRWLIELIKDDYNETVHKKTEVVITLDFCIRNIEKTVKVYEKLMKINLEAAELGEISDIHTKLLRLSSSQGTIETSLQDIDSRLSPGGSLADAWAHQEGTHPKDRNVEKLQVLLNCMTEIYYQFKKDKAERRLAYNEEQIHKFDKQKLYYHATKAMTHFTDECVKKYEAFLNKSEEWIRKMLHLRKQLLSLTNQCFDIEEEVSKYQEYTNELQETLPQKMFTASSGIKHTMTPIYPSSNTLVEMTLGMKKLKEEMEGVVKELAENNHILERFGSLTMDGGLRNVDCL

IKKε, sequence (Q14164 whole entry): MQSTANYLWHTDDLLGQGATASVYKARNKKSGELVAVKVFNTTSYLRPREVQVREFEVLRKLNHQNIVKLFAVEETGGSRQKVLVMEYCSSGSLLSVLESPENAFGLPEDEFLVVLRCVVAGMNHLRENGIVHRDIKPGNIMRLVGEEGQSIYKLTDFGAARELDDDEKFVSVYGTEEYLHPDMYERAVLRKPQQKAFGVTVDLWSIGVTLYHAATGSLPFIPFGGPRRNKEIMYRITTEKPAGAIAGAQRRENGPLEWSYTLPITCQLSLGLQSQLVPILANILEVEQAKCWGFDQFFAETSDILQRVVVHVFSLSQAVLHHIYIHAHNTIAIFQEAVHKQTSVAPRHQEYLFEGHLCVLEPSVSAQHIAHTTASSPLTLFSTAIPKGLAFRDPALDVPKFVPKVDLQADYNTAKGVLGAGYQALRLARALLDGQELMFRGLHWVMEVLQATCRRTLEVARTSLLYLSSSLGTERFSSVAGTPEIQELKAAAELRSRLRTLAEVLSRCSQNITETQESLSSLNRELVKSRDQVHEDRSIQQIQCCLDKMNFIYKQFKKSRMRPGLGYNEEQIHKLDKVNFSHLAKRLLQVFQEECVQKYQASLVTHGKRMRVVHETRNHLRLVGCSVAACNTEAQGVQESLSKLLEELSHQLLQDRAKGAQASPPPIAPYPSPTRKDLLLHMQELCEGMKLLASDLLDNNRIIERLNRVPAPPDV

| SMILES | IC50 (IKKε) [nM] | IC50 (TBK1) [nM] |
| --- | --- | --- |
| N#CCC(=O)N1CC[C@@H](Oc2ccc(-c3ccnc4[nH]c(-c5ccc(N6CCOCC6)cc5)nc34)cc2C#N)C1 [Example 303, (R)-2-((1-(2-cyanoacetyl)pyrrolidin-3-yl)oxy)-5-(2-(4-morpholinophenyl)-3H-imidazo[4,5-b]pyridin-7-yl)benzonitrile] | 7.51 | 4.59 |
| N#CCC(=O)N1CC[C@H](Oc2ccc(-c3ccnc4[nH]c(-c5ccc(N6CCOCC6)cc5)cc34)cc2C#N)C1 [Example 24, (S)-2-((1-(2-cyanoacetyl)pyrrolidin-3-yl)oxy)-5-(2-(4-morpholinophenyl)-1H-pyrrolo[2,3-b]pyridin-4-yl)benzonitrile] | 321 | 56.8 |
| N#Cc1cc(-c2ncnc3[nH]c(-c4ccc(Cl)cc4)cc23)ccc1OC1CCN(C(=O)CO)CC1 [Example 127, 5-(6-(4-chlorophenyl)-7H-pyrrolo[2,3-d]pyrimidin-4-yl)-2-((1-(2-hydroxyacetyl)piperidin-4-yl)oxy)benzonitrile] | 9.58 | 4.64 |
| N#Cc1cc(-c2ncnc3[nH]c(-c4cccc(Cn5ccnc5)c4)cc23)ccc1OC1CCOCC1 [Example 119, 5-(6-(3-((1H-imidazol-1-yl)methyl)phenyl)-7H-pyrrolo[2,3-d]pyrimidin-4-yl)-2-((tetrahydro-2H-pyran-4-yl)oxy)benzonitrile] | 1.22 | 1.23 |
| N#Cc1cc(-c2ccnc3[nH]c(-c4ccc(N5CCOCC5)cc4)cc23)cnc1OC1CCOCC1 [Example 29, 5-(2-(4-morpholinophenyl)-1H-pyrrolo[2,3-b]pyridin-4-yl)-2-((tetrahydro-2H-pyran-4-yl)oxy)nicotinonitrile] | 242 | 14.8 |
| N#Cc1cc(-c2ncnc3[nH]c(-c4ccc(N5CCN(C6COC6)CC5)cc4)cc23)ccc1OC1CCN(C(=O)CO)CC1 [Example 157, 2-((1-(2-hydroxyacetyl)piperidin-4-yl)oxy)-5-(6-(4-(4-(oxetan-3-yl)piperazin-1-yl)phenyl)-7H-pyrrolo[2,3-d]pyrimidin-4-yl)benzonitrile] | 1.43 | 0.849 |
| COc1cc(-c2cc3c(-c4ccc(OC5CCOCC5)c(C#N)c4)ncnc3[nH]2)ccc1N1CCN(C(=O)CO)CC1 [Example 134, 5-(6-(4-(4-(2-hydroxyacetyl)piperazin-1-yl)-3-methoxyphenyl)-7H-pyrrolo[2,3-d]pyrimidin-4-yl)-2-((tetrahydro-2H-pyran-4-yl)oxy)benzonitrile] | 6.09 | 1.09 |
| COc1ccc(-c2cc3c(-c4ccc(OC5CCN(C(=O)CO)CC5)c(C#N)c4)ncnc3[nH]2)cn1 [Example 130, 2-((1-(2-hydroxyacetyl)piperidin-4-yl)oxy)-5-(6-(6-methoxypyridin-3-yl)-7H-pyrrolo[2,3-d]pyrimidin-4-yl)benzonitrile] | 10.6 | 5.43 |
| N#Cc1cc(-c2ccnc3[nH]c(-c4ccc(C(=O)C(F)(F)F)cc4)cc23)ccc1OC1CCOCC1 [Example 237, 2-((tetrahydro-2H-pyran-4-yl)oxy)-5-(2-(4-(2,2,2-trifluoroacetyl)phenyl)-1H-pyrrolo[2,3-b]pyridin-4-yl)benzonitrile] | 29.7 | 11.4 |
| Cc1cc(N2CCOCC2)ccc1-c1cc2c(-c3ccc(OC4CCOCC4)c(C#N)c3)ccnc2[nH]1 [Example 124, 5-(2-(2-methyl-4-morpholinophenyl)-1H-pyrrolo[2,3-b]pyridin-4-yl)-2-((tetrahydro-2H-pyran-4-yl)oxy)benzonitrile] | 18.6 | 5.9 |
| N#Cc1cc(-c2ccnc3[nH]c(-c4ccc(N5CCOCC5)cc4)nc23)ccc1OC1CCNCC1 [Example 197, 5-(2-(4-morpholinophenyl)-3H-imidazo[4,5-b]pyridin-7-yl)-2-(piperidin-4-yloxy)benzonitrile] | 109 | 29.1 |
| N#Cc1cc(-c2ncnc3[nH]c(-c4ccc(N5CCOCC5)cc4)cc23)ccc1OC1CCNCC1 [Example 218, 5-(6-(4-morpholinophenyl)-7H-pyrrolo[2,3-d]pyrimidin-4-yl)-2-(piperidin-4-yloxy)benzonitrile] | 140 | 31.1 |
| N#Cc1cc(-c2ccnc3[nH]c(-c4ccc(N5CCN(C(=O)CO)CC5)cc4)cc23)ccc1OC1CCOCC1 [Example 56, 5-(2-(4-(4-(2-hydroxyacetyl)piperazin-1-yl)phenyl)-1H-pyrrolo[2,3-b]pyridin-4-yl)-2-((tetrahydro-2H-pyran-4-yl)oxy)benzonitrile] | 15.8 | 2.02 |
| CC(C)(C)OC(=O)N1CCC(Oc2ccc(-c3ncnc4[nH]c(-c5ccc(N6CCOCC6)cc5)nc34)cc2C#N)CC1 [Example 203, tert-butyl 4-(2-cyano-4-(8-(4-morpholinophenyl)-9H-purin-6-yl)phenoxy)piperidine-1-carboxylate] | > 1000 | > 1000 |
| N#Cc1cc(-c2ccnc3[nH]c(-c4ccc(N5CCOCC5)cc4)cc23)ccc1N [Example 28, 2-amino-5-(2-(4-morpholinophenyl)-1H-pyrrolo[2,3-b]pyridin-4-yl)benzonitrile] | 119 | 11.7 |
| N#Cc1cc(-c2ncnc3[nH]c(-c4ccc(OCCN5CCCC5)cc4)cc23)ccc1OC1CCOCC1 [Example 226, 5-(6-(4-(2-(pyrrolidin-1-yl)ethoxy)phenyl)-7H-pyrrolo[2,3-d]pyrimidin-4-yl)-2-((tetrahydro-2H-pyran-4-yl)oxy)benzonitrile] | 1.8 | 1.24 |
| COc1ccc(-c2ccnc3[nH]c(-c4ccc(N5CCOCC5)cc4)cc23)cc1C#N [Example 34, 2-methoxy-5-(2-(4-morpholinophenyl)-1H-pyrrolo[2,3-b]pyridin-4-yl)benzonitrile] | > 1000 | 89.8 |
| N#Cc1cc(-c2ccnc3[nH]c(-c4ccc(N5CCOCC5)cc4)cc23)ccc1N1CCCC1 [Example 49, 5-(2-(4-morpholinophenyl)-1H-pyrrolo[2,3-b]pyridin-4-yl)-2-(pyrrolidin-1-yl)benzonitrile] | > 78 | 7.05 |
| N#Cc1cc(-c2ncnc3[nH]c(-c4ccc(N5CCOCC5)c(F)c4)nc23)ccc1OC1CCN(C(=O)CO)CC1 [Example 241, 5-(8-(3-fluoro-4-morpholinophenyl)-9H-purin-6-yl)-2-((1-(2-hydroxyacetyl)piperidin-4-yl)oxy)benzonitrile] | 2.64 | 1.3 |
| N#Cc1cc(-c2ccnc3[nH]c(C(=O)N4CCCC4)cc23)ccc1OC1CCOCC1 [Example 117, 5-(2-(pyrrolidine-1-carbonyl)-1H-pyrrolo[2,3-b]pyridin-4-yl)-2-((tetrahydro-2H-pyran-4-yl)oxy)benzonitrile] | 262 | 383 |
| N#Cc1cc(-c2ncnc3[nH]c(-c4ccc(CN5CCOCC5)cc4)nc23)ccc1OC1CCN(C(=O)C(F)F)CC1 [Example 266, 2-((1-(2,2-difluoroacetyl)piperidin-4-yl)oxy)-5-(8-(4-(morpholinomethyl)phenyl)-9H-purin-6-yl)benzonitrile] | 7.95 | 8.87 |
| N#Cc1cc(-c2ccnc3[nH]c(-c4cnn(C5COC5)c4)cc23)ccc1OC1CCOCC1 [Example 6, 5-(2-(1-(oxetan-3-yl)-1H-pyrazol-4-yl)-1H-pyrrolo[2,3-b]pyridin-4-yl)-2-((tetrahydro-2H-pyran-4-yl)oxy)benzonitrile] | 4.87 | 3.13 |
